Data from patent publication US20120220560A1, “STEROID TETROL SOLID STATE FORMS” (priority 2010, published 2012).

How the values were obtained:
[1] = system: 8 week old db/db diabetic mice; test: Hyperinsulinemic-euglycemic clamp, glucose lowering in db/db diabetic mice; assay type: in vivo; details: for glucose infusion rate compared to the vehicle control: db/db mice, po bid 13 days, qd day 14, clamp on day 14, insulin 10 mU/kg/min; for glucose uptake in white vastus muscle / augmenting muscle glucose uptake in the gastrocnemius muscle: 14C-2-deoxyglucose during clamp; for glucose uptake in white vastus muscle: non oxidative muscle group; for augmenting muscle glucose uptake in the gastrocnemius muscle: p<0.05
Description: Glucose lowering in 8 week old db/db diabetic mice: The hyperinsulinemic-euglycemic clamp protocol was conducted to measure insulin sensitivity in vivo. In this procedure, insulin was administered to raise the insulin concentration while glucose was infused to maintain euglycemia or a fixed, normal blood glucose level (about 180 mg/dL). […] The objective of this protocol was to investigate characterize the capacity of 17α-ethynylandrost-5-ene-3β,7β,17β-triol and androst-5-ene-3β,7β,16α,17β-tetrol to ameliorate systemic insulin resistance and improve whole body glucose disposal in the hyperinsulinemic-euglycemic clamp model. The degree of skeletal muscle and hepatic insulin sensitivity and tissue specific glucose uptake were also assessed. The animals were dosed daily by oral gavage for 14 days. On Day 10 of treatment catheters were implanted in the carotid artery and jugular vein. On the day of the clamp (day 14) the compound was administered at 7:30 am.
Body weight and glucose concentration were assessed on day 0, 7 and day 14 of treatment. On day 14 a euglycemic-hyperinsulinemic clamp was performed. Food was removed at 7:30 am and at 10:30 a primed continuous infusion of [3-^3H]-glucose (0.05 μCi/min) was administered. A baseline blood sample was taken at 12:50 (−10 min) and at 1:00 (0 min) a euglycemic-hyperinsulinemic clamp was initiated by administering 10 mU/kg/min of insulin. Glucose was infused at a variable rate to clamp the glucose concentration at about 180 mg/dl. A bolus of [^14C]-2deoxyglucose was given at the end of the study to assess tissue specific glucose uptake. Plasma ^14C 2-deoxyglucose was assessed at 122, 125, 130, 135, 145 min. The animals were then anesthetized with an intravenous infusion of sodium pentobarbital and selected tissues were removed, immediately frozen in liquid nitrogen and stored at −70° C. until analysis.
Analysis was conducted as follows. Plasma samples were deproteinized with Ba(OH)2 (0.3 N) and ZnSO4 (0.3 N), dried and radioactivity was assessed on scintillation counter (Packard TRICARB 2900 TR, Meriden, Conn.). Frozen tissue samples were homogenized in 0.5% perchloric acid, centrifuged and neutralized. One supernatant was directly counted to determine radioactivity from both [14C] DG and DGP. A second aliquot was treated with Ba(OH)2 and ZnSO4 to remove ^14C DGP and any tracer incorporated into glycogen and then counted to determine radioactivity from free [^14C]DG(2). [^14C]DGP was calculated as the difference between the two aliquots. The accumulation of [^14C]DGP was normalized to tissue weight and tracer bolus. Rg, an index of tissue specific glucose uptake was calculated as previously described (E. W. Kraegen et al., Am. J. Physiol., 248: E353-E362 (1985)). Whole body glucose turnover was calculated as the ratio of the ^3H glucose infusion rate (dpm/kg/min) and arterial plasma glucose specific activity (dpm/mg). Endogenous glucose production was calculated as the difference between the whole body glucose turnover and the exogenous glucose infusion rate (R. N. Bergman et al., Endocr. Rev., 6:45-86, (1985)).

[2] = system: male Wistar rats, DNBS challenge; test: DNBS-induced distal colitis, animal model for inflammatory bowel disease; assay type: in vivo; details: sc once a day for 6 days, 0.2 or 2.0 mg/animal/day, 25-30% decrease considered significant
Description: The capacity of androst-5-ene-3β,7β,16α,17β-tetrol (3β-tetrol) to limit or inhibit inflammation or symptoms of inflammation is shown using an animal model for inflammatory bowel disease using the following protocol.
Groups of 3 male Wistar rats (180±20 grams) fasted for 24 hours before 2,4-dinitrobenzene sulfonic acid (DNBS) or saline challenge are used. Distal colitis is induced by intra-colonic instillation of 0.5 mL of an ethanolic solution of DNBS (30 mg in 0.5 mL of a 30% ethanol in saline solution) after which 2 mL of air was injected through the cannula to ensure that the solution remained in the colon. The volume used was 0.1 mL per injection of 2 and 20 mg/mL of compound such as androst-5-ene-3β,7β,17β-triol or 3β-tetrol in a liquid formulation, which was administered by subcutaneous injection once a day for 6 days (0.2 mg/animal/day or 2.0 mg/animal/day). The formulation contains […] of compound. Concentrations of 2 mg/mL and 20 mg/mL are obtained by […] with vehicle that lacked compound.
The first dose is given 30 minutes after DNBS challenge. […] The presence of diarrhea is recorded daily by examining the anal area. […] Before removal of the colon, signs of adhesion between the colon and other organs are recorded. […]

MG-63 cells = test: Reversal of adverse effects of dexamethasone in MG-63 osteoblasts (incl. osteoprotegerin synthesis); assay type: cell-based, human
Text: (§1) The capacity of 5-androstene-3β,7β,17β-triol, androst-5-ene-3β,7β,16α,17β-tetrol (3β-tetrol) and other compounds to reverse adverse effects of glucocorticoids in bone growth was shown in the human MG-63 osteosarcoma cell line. MG-63 cells are osteoblasts, which are cells that mediate bone growth. This cell line has been used extensively to study bone biology and to characterize the biological activity of compounds for treatment of bone loss conditions (e.g., B. D. Boyan et al., J. Biol. Chem., 264(20):11879-11886 (1989); L. C. Hofbauer et al., Endocrinology, 140(10):4382-4389 (1999)). Adverse toxicities associated with elevated glucocorticoid levels include a […] in the production of IL-6 and IL-8 by osteoblasts, including the MG-63 cell line, and an increase in the expression of the 11β-hydroxysteroid dehydrogenase type 1 enzyme (11β-HSD). Increased 11β-hydroxysteroid dehydrogenase type 1 enzyme results in increased levels of endogenous glucocorticoid activity by converting endogenous cortisone to the active cortisol, which inhibits bone growth. The 11β-HSD enzyme is expressed in liver, adipose tissue, brain and bone tissues. Cortisol generated by 11β-HSD-1 contributes to osteoporosis, insulin resistance, type 2 diabetes, dyslipidemia, obesity, central nervous system disorders such as stroke, neuron death, depression and Parkinson Disease. […]

androgen receptor = biological target: T1, androgen receptor (Homo sapiens, UniProt P10275); test: Interaction with androgen receptor; assay type: binding
T1 sequence (P10275 1-920): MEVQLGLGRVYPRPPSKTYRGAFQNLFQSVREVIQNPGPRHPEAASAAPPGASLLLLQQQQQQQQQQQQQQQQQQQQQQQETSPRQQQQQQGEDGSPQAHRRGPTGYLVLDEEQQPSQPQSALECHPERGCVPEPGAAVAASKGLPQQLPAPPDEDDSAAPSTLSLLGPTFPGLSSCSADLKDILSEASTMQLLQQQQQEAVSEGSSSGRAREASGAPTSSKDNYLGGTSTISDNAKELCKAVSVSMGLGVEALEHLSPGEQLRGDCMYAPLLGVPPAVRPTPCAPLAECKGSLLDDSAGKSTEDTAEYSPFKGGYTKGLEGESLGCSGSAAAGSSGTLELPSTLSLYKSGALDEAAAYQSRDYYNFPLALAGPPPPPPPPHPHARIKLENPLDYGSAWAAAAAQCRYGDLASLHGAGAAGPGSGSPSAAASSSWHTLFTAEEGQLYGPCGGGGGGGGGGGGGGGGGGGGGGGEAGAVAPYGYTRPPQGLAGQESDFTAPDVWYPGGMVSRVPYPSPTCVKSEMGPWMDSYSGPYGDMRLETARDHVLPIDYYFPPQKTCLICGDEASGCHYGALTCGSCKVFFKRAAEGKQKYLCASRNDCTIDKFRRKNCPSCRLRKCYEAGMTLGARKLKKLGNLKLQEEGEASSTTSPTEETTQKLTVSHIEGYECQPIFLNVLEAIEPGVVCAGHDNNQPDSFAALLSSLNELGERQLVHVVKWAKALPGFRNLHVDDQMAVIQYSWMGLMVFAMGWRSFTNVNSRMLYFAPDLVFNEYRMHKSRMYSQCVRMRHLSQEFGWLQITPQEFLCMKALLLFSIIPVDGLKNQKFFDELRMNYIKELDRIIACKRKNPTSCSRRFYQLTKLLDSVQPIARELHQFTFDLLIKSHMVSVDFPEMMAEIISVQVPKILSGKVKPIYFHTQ

estrogen receptor-α = estrogen receptor-α (Homo sapiens, UniProt P03372); test: Interaction with estrogen receptor-α; assay type: binding
estrogen receptor-β = estrogen receptor-β (Homo sapiens, UniProt Q92731); test: Interaction with estrogen receptor-β; assay type: binding
IL-6 from MG-63 cells = test: Inhibition of IL-6 from MG-63 cells; assay type: cell-based; details: Homo sapiens, pilot studies
Text: as §1

osteoprotegerin = test: Osteoprotegerin levels in dexamethasone-treated mice; assay type: in vivo; details: mice treated with vehicle and dexamethasone at 10 μg/day, daily for 23 days (positive control group)
Description: Osteoprotegerin levels in mice that are treated with vehicle and dexamethasone at 10 μg/day (positive control group) typically show 3.3 pMol/L osteoprotegerin, […]

Sequence of estrogen receptor-β (Q92731 whole entry, species assumed): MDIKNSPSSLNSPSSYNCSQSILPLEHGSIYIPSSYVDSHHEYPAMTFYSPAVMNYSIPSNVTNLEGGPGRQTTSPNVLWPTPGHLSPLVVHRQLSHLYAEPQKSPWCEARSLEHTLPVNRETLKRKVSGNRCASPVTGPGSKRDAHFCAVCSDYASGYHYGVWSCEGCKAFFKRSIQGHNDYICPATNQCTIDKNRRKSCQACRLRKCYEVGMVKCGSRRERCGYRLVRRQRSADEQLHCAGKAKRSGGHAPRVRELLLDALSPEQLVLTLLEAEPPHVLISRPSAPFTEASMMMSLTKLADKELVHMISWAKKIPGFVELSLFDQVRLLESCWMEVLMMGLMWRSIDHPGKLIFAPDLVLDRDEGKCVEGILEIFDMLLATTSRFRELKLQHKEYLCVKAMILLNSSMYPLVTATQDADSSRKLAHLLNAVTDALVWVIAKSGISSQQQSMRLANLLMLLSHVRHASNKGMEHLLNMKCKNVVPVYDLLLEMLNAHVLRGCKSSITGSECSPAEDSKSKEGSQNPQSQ
Sequence of estrogen receptor-α (P03372 whole entry): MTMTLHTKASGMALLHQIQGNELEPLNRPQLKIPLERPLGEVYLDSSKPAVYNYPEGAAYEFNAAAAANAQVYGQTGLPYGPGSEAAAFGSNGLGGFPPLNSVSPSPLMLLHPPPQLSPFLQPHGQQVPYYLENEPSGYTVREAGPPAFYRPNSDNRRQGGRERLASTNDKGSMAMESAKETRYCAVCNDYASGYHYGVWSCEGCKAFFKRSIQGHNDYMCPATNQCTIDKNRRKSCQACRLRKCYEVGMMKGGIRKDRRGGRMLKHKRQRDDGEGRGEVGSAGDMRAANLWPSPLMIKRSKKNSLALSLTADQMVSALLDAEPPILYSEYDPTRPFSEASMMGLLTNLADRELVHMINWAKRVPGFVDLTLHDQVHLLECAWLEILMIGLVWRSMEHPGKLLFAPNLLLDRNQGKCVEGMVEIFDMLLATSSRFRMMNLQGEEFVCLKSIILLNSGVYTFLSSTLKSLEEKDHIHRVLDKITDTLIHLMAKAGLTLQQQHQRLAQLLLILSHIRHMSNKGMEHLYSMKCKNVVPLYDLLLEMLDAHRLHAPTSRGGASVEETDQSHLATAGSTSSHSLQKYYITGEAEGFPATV

SMILES: C#C[C@]1(O)CC[C@H]2[C@@H]3[C@@H](O)C=C4C[C@@H](O)CC[C@]4(C)[C@H]3CC[C@@]21C [17α-ethynylandrost-5-ene-3β,7β,17β-triol, reference compound]
- glucose infusion rate compared to the vehicle control [1]: increased

SMILES: C[C@]12CC[C@H]3[C@@H]([C@@H](O)C=C4C[C@@H](O)CC[C@@]43C)[C@@H]1C[C@@H](O)[C@@H]2O [Form 3β-tetrol, androst-5-ene-3β,7β,16α,17β-tetrol]
- glucose uptake in white vastus muscle [1]: differences were not detected except between androst-5-ene-3β,7β,16α,17β-tetrol and rosiglitazone
- augmenting muscle glucose uptake in the gastrocnemius muscle [1]: more effective
- glucose infusion rate compared to the vehicle control [1]: increased
- decrease in net colon-to-body weight ratio [2]: 25-35%
- concentration giving normal osteoprotegerin levels (MG-63 cells; MG-63 cells, 30 nM dexamethasone): 0.1 µM
- reversal of the decrease in osteoprotegerin synthesis by MG-63 cells (MG-63 cells; in the presence of 30 nM dexamethasone): completely or partially reversed
- interaction with androgen receptor (androgen receptor): does not interact
- interaction with estrogen receptor-α (estrogen receptor-α): does not interact
- interaction with estrogen receptor-β (estrogen receptor-β): does not interact

SMILES: C[C@]12CC[C@H]3[C@@H]([C@@H](O)C=C4C[C@@H](O)CC[C@@]43C)[C@@H]1CC[C@@H]2O [androst-5-ene-3β,7β,17β-triol, reference compound]
- decrease in net colon-to-body weight ratio [2]: 15-20%

SMILES: C[C@@H]1C[C@H]2[C@@H]3CCC4=CC(=O)C=C[C@]4(C)[C@@]3(F)[C@@H](O)C[C@]2(C)[C@@]1(O)C(=O)CO [dexamethasone]
- IC50 (IL-6 from MG-63 cells): 10 nM
- osteoprotegerin level (osteoprotegerin): 3.3 pmol/L

SMILES: CN(CCOc1ccc(CC2SC(=O)NC2=O)cc1)c1ccccn1.O=C(O)/C=C\C(=O)O (stereo not drawn) [rosiglitazone, rosiglitazone maleate, reference compound]
- glucose uptake in white vastus muscle [1]: differences were not detected except between androst-5-ene-3β,7β,16α,17β-tetrol and rosiglitazone
- augmenting muscle glucose uptake in the gastrocnemius muscle [1]: more effective
